From ChEMBL document CHEMBL1909046, “DrugMatrix in vitro pharmacology data”
pIC50, pKi: −log10 of the molar value.

What was measured:
[1] = biological target: T1, Type-2 angiotensin II receptor (Homo sapiens, UniProt P50052); format: cell-based; conditions: cho-k1; note: in other assays of this panel Not Active means under 50% inhibition at 10 µM
T1 sequence (P50052 whole entry): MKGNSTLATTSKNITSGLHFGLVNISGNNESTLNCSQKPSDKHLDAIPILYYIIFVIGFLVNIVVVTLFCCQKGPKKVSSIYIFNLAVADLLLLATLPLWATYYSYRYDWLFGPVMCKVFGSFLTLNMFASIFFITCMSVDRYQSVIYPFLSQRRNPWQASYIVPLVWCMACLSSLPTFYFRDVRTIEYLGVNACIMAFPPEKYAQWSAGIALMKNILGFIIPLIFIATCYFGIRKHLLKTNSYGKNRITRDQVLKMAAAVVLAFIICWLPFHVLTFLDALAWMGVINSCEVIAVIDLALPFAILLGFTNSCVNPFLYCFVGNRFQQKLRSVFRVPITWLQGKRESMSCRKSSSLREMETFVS

[2] = biological target: T2, Polyunsaturated fatty acid lipoxygenase ALOX15 (Oryctolagus cuniculus, UniProt P12530); test: biochemical; format: tissue-based, Reticulocytes; conditions: reticulocytes;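 note: inhibition of 15-lipoxygenase enzyme activity measured with linoleic acid as the substrate; in other assays of this panel Not Active means under 50% inhibition at 10 µM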
T2 sequence (P12530 whole entry): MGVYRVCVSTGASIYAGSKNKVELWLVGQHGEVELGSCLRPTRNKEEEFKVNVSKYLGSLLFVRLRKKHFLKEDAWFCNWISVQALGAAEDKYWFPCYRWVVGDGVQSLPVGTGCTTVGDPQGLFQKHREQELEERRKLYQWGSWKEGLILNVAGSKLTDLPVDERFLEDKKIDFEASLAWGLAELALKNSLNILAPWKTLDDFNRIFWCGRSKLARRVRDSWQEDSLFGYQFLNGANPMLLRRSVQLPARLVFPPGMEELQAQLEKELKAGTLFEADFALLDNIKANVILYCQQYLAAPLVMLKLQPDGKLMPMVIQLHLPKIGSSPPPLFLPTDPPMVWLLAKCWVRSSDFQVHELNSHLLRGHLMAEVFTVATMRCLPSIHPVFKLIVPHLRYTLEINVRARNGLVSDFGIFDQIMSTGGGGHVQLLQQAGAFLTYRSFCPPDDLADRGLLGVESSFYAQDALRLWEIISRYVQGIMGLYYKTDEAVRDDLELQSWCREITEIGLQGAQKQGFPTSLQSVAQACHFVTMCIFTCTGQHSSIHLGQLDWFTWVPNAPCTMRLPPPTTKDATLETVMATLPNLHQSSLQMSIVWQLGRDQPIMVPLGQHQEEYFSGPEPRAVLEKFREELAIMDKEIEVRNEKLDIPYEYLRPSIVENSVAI

[3] = biological target: Cytochrome P450 2E1 (Homo sapiens, UniProt P05181); conditions: bti-tn-5b1-4; note: in other assays of this panel Not Active means under 50% inhibition at 10 µM
[4] = DRUGMATRIX: Calcium Channel Type L, Dihydropyridine radioligand binding (ligand: [3H] Nitrendipine); format: cell membranes, Rattus norvegicus, Wistar, Cerebral cortex, Membrane; conditions: Not Active = under 50% inhibition at 10 µM
[5] = biological target: T3, Nitric oxide synthase, inducible (Mus musculus, UniProt P29477); set-up: species or system Escherichia coli;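 note: inhibition of iNOS enzyme activity measured with L-arginine as substrate; in other assays of this panel Not Active means under 50% inhibition at 10 µM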
T3 sequence (P29477 whole entry): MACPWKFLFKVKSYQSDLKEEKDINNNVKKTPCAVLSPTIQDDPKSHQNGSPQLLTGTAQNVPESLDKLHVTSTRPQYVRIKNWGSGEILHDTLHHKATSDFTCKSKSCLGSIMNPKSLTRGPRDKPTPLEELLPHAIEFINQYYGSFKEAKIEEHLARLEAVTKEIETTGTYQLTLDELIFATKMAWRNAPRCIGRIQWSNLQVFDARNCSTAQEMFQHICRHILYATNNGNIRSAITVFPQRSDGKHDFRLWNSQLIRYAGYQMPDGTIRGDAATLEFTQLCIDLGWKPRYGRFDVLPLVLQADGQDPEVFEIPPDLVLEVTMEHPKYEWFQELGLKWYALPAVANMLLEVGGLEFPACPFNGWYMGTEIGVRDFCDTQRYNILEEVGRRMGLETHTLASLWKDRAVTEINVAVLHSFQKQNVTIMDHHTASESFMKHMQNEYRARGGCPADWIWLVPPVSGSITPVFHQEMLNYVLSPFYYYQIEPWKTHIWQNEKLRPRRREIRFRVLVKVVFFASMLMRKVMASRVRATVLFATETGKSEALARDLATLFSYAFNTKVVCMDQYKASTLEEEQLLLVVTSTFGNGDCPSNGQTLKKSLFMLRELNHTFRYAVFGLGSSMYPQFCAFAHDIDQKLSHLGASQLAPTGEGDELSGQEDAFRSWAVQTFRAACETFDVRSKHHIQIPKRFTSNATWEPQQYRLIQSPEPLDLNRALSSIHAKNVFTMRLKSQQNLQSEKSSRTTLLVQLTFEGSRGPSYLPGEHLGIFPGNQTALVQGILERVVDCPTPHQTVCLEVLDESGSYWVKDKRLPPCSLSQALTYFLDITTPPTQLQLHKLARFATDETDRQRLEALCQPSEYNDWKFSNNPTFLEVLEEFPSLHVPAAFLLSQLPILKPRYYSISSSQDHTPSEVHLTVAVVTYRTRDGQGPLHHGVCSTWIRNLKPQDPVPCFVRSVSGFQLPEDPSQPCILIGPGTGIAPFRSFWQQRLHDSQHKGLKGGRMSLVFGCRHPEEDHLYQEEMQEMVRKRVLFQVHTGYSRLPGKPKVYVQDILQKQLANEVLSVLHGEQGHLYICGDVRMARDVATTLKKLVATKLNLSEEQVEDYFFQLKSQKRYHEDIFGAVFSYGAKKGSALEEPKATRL

[6] = DRUGMATRIX: Leukotriene, BLT (LTB4) radioligand binding (ligand: [3H]LTB4); format: cell membranes, Membrane; conditions: u-937; Not Active = under 50% inhibition at 10 µM
[7] = biological target: Cannabinoid receptor 1 (Homo sapiens, UniProt P21554); format: cell membranes, Membrane; conditions: chem-1; note: in other assays of this panel Not Active means under 50% inhibition at 10 µM
[8] = biological target: Mitogen-activated protein kinase 14 (Homo sapiens, UniProt Q16539); set-up: species or system Escherichia coli
[9] = biological target: Glycine receptor (Rattus norvegicus, UniProt P22771+P24524+P07727+P20781); format: cell membranes, Wistar, Spinal cord, Membrane; note: in other assays of this panel Not Active means under 50% inhibition at 10 µM
[10] = biological target: Tyrosine-protein kinase Lck (Homo sapiens, UniProt P06239); test: DRUGMATRIX: Protein Tyrosine Kinase, LCK enzyme inhibition (substrate: Poly(Glu:Tyr)); format: cell-based, Insect cells; conditions: Not Active = under 50% inhibition at 10 µM; for IC50: insect cells
[11] = biological target: Melanocortin receptor 4 (Homo sapiens, UniProt P32245); format: cell membranes, Membrane; conditions: hek293; note: in other assays of this panel Not Active means under 50% inhibition at 10 µM
[12] = biological target: D(3) dopamine receptor (Homo sapiens, UniProt P35462); test: DRUGMATRIX: Dopamine D3 radioligand binding (ligand: [3H] Spiperone); format: cell membranes, CHO, Membrane; conditions: for IC50: cho
Sequence of D(3) dopamine receptor (P35462 whole entry): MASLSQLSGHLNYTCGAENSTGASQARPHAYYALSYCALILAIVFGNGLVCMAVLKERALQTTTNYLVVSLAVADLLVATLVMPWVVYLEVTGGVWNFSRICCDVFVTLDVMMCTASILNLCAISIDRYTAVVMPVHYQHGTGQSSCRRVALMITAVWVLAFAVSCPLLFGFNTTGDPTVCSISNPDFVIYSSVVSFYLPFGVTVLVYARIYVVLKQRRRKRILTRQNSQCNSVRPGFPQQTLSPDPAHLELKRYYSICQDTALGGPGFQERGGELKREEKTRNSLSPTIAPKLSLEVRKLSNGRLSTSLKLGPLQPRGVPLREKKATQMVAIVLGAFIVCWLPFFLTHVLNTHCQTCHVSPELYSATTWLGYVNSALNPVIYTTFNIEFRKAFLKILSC

Sequence of Cytochrome P450 2E1 (P05181 whole entry): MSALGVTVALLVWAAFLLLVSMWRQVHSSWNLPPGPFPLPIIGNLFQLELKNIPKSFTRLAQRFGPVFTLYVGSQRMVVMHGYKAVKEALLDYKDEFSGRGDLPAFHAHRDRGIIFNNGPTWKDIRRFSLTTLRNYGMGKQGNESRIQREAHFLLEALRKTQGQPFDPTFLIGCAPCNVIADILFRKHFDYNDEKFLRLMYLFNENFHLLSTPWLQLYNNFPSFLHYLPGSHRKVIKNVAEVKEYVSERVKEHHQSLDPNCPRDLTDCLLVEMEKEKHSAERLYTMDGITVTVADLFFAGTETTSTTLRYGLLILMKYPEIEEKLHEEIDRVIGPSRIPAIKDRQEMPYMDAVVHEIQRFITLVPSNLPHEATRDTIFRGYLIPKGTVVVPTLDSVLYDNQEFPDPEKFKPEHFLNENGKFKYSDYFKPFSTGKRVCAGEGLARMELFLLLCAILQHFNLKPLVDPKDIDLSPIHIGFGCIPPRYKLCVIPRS
Sequence of Tyrosine-protein kinase Lck (P06239 whole entry): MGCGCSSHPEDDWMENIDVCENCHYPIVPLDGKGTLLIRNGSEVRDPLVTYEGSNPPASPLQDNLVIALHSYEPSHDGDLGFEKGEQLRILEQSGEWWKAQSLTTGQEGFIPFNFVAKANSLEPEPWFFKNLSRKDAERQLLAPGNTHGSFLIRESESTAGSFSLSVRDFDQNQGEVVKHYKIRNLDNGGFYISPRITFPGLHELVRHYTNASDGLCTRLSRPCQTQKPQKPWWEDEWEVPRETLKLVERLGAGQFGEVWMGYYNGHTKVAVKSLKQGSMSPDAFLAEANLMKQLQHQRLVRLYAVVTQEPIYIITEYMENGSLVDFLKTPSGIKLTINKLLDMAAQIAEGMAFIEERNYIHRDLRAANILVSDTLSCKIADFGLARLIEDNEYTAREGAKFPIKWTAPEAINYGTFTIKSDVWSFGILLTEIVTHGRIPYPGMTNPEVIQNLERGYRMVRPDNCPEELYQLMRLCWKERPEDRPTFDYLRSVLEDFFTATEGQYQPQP
Sequence of Cannabinoid receptor 1 (P21554 whole entry): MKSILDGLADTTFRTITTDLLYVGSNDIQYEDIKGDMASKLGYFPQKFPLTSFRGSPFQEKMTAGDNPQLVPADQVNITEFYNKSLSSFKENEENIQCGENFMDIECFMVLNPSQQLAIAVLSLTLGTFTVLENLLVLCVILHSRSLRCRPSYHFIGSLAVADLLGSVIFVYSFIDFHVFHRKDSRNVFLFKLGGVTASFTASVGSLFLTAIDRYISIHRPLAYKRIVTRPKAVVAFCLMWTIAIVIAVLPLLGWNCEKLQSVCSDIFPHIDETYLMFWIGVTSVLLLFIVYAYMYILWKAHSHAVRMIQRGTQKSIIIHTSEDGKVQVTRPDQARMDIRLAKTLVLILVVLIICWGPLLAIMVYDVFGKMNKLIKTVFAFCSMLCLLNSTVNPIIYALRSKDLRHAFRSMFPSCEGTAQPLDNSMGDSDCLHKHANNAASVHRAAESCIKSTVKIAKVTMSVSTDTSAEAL
Sequence of Melanocortin receptor 4 (P32245 whole entry): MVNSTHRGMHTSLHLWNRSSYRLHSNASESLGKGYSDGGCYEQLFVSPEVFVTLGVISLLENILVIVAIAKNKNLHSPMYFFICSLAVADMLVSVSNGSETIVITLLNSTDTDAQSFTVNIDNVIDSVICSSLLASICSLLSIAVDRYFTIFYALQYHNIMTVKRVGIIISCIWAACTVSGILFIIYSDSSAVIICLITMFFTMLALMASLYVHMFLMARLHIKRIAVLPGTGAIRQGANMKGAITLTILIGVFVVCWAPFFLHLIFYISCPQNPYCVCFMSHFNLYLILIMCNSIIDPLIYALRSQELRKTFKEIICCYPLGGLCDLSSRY
Sequence of Mitogen-activated protein kinase 14 (Q16539 whole entry): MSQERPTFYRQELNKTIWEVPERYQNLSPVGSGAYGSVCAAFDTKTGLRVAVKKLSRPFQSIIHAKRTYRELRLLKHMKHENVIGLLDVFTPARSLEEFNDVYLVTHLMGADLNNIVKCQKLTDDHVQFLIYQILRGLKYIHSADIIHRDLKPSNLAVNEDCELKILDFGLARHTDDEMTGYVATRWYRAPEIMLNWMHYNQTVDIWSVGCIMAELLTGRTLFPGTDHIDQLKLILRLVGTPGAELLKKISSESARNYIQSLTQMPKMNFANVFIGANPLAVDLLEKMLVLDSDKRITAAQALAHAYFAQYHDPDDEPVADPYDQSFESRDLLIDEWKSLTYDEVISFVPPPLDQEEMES

SMILES | IC50 [1] | IC50 [2] | IC50 [3] | Ki [3] | IC50 [4] | Ki [4] | IC50 [5] | IC50 [6] | Ki [6] | IC50 [7] | IC50 [8] | IC50 [9] | IC50 [10] | IC50 [11] | IC50 [12] | pIC50 ([8]; read-out: IC50) | pIC50 ([10]; read-out: IC50) | pIC50 ([12]; read-out: IC50) | pKi ([12]; read-out: Ki)
N=C(N)NCCCCNC(=N)N.O=S(=O)(O)O [ARCAINE SULFATE] | Not Active | Not Active | Not Active | Not Active | Not Active | Not Active | Not Active | Not Active | Not Active | Not Active | Not Active | Not Active | Not Active | Not Active | Not Active | – | – | – | –
C=C1[C@@H]2CCC3[C@@](CC[C@@H]4[C@H](C(=O)O)C[C@@H](O[C@@H]5O[C@H](CO)[C@@H](OS(=O)(=O)[O-])[C@H](OS(=O)(=O)[O-])[C@H]5OC(=O)CC(C)C)C[C@@]34C)(C2)[C@@H]1O.[K+].[K+] (stereo partly specified) [ATRACTYLOSIDE] | Not Active | Not Active | Not Active | Not Active | Not Active | Not Active | Not Active | Not Active | Not Active | Not Active | Not Active | Not Active | Not Active | Not Active | Not Active | – | – | – | –
Cn1cnc([N+](=O)[O-])c1Sc1ncnc2nc[nH]c12 [AZATHIOPRINE] | Not Active | Not Active | Not Active | Not Active | Not Active | Not Active | Not Active | Not Active | Not Active | Not Active | Not Active | Not Active | Not Active | Not Active | Not Active | – | – | – | –
CC1(C)S[C@@H]2[C@H](NC(=O)[C@H](NC(=O)N3CCNC3=O)c3ccccc3)C(=O)N2[C@H]1C(=O)O [AZLOCILLIN] | Not Active | Not Active | Not Active | Not Active | Not Active | Not Active | Not Active | Not Active | Not Active | Not Active | Not Active | Not Active | Not Active | Not Active | Not Active | – | – | – | –
CCOC(=O)c1ccc(N)cc1 [BENZOCAINE] | Not Active | Not Active | Not Active | Not Active | Not Active | Not Active | Not Active | Not Active | Not Active | Not Active | Not Active | Not Active | Not Active | Not Active | Not Active | – | – | – | –
OCc1ccccc1 [BENZYL ALCOHOL] | Not Active | Not Active | Not Active | Not Active | Not Active | Not Active | Not Active | Not Active | Not Active | Not Active | Not Active | Not Active | Not Active | Not Active | Not Active | – | – | – | –
CC(C)(Oc1ccc(CCNC(=O)c2ccc(Cl)cc2)cc1)C(=O)O [BEZAFIBRATE] | Not Active | Not Active | Not Active | Not Active | Not Active | Not Active | Not Active | Not Active | Not Active | Not Active | Not Active | Not Active | Not Active | Not Active | Not Active | – | – | – | –
CCCC[C@@H](CC)COC(=O)c1ccccc1C(=O)OC[C@@H](CC)CCCC [BIS(2-ETHYLHEXYL)PHTHALATE] | Not Active | Not Active | Not Active | Not Active | Not Active | Not Active | Not Active | Not Active | Not Active | Not Active | Not Active | Not Active | Not Active | Not Active | Not Active | – | – | – | –
Oc1c(Cl)cc(Cl)cc1Sc1cc(Cl)cc(Cl)c1O [BITHIONOL] | Not Active | Not Active | Not Active | Not Active | Not Active | Not Active | Not Active | Not Active | Not Active | Not Active | – | Not Active | – | Not Active | – | 6.50 | 5.65 | 5.37 | 5.84
